This is an account of results in patent publication US12534469B2 (CHILDREN'S HOSPITAL MEDICAL CENTER, priority 2020, dated 2026).

Common to all, as to format: biochemical
One assay concerns the target T1, FLT3 (Homo sapiens, UniProt P36888).
T1 construct: purchased Reaction Biology (RBC HotSpot Kinase Assay)
T1 sequence (P36888 564-958 limits assumed): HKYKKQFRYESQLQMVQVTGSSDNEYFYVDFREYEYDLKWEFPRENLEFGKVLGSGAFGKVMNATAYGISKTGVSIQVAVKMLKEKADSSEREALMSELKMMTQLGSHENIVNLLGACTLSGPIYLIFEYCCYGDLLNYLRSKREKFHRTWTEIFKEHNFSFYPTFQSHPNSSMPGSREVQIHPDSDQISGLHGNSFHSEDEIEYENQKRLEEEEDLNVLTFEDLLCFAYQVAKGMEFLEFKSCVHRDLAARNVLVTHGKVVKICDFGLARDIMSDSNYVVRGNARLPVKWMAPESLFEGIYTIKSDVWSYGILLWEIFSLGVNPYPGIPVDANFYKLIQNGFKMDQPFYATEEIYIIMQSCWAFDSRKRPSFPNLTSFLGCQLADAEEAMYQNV
Briefly: RBC HotSpot Kinase Assay, FLT3. The text has this: (§1) This assay uses the isolated kinase enzyme. This assay is very useful for determining competition of the inhibitor for ATP and/or substrates and for measuring the kinetics of enzyme inhibition. […] Unlike kinase binding assays that measure competition for ATP, the HotSpot Kinase Assay is a functional assay that measures catalytic activity; as such it measures relative functional potency regardless of the mechanism of enzyme inhibition. This assay uses the form of the various enzymes that are easiest to express, which may not necessarily be the form of the enzyme that exist in the cell. (Sometimes the carboxy terminus has been truncated to aid in expression, or, if it is a receptor kinase, the enzyme itself is isolated from the other parts of the receptor that are involved in regulating kinase activity.)
(§2) The reagent used was as follows: Base Reaction buffer; 20 mM Hepes (pH 7.5), 10 mM MgCl2, 1 mM EGTA, 0.01% Brij35, 0.02 mg/ml BSA, 0.1 mM Na3VO4, 2 mM DTT, 1% DMSO. Required cofactors were added individually to each kinase reaction.
(§3) The reaction procedure was as follows: • 1) Substrates were prepared in freshly prepared Reaction Buffer. • 2) Any required cofactors were delivered to the substrate solution above. • 3) Kinase was delivered into the substrate solution and gently mixed. • 4) Compounds were delivered in 100% DMSO into the kinase reaction mixture by Acoustic technology (Echo550; nanoliter range), followed by incubation for 20 min at room temp. • 5) ^33P-ATP was delivered into the reaction mixture to initiate the reaction. • 6) The mixture was incubated for 2 hours at room temperature. • 7) Kinase activity was detected by P81 filter-binding method.

A further assay has as its target T2, IRAK4 (Homo sapiens, UniProt Q9NWZ3).
T2 sequence (Q9NWZ3 1-460): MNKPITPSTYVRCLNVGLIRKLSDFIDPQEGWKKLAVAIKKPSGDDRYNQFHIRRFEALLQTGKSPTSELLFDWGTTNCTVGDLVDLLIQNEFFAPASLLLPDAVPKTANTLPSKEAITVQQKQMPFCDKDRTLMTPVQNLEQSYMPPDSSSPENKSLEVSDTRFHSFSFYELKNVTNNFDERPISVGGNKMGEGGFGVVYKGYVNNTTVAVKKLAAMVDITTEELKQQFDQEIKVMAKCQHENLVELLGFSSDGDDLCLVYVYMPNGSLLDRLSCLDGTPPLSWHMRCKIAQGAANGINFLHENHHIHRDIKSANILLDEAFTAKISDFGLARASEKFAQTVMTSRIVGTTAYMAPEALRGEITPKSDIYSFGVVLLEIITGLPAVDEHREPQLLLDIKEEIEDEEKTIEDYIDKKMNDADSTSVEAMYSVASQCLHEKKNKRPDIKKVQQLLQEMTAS
The assay can be described thus: RBC HotSpot Kinase Assay, IRAK4. Details: purchased Reaction Biology (RBC HotSpot Kinase Assay).
From the text: as §1, §2, §3

A further assay addresses T3, IRAK1 (Homo sapiens, UniProt P51617).
T3 construct: purchased Reaction Biology (RBC HotSpot Kinase Assay)
Briefly: RBC HotSpot Kinase Assay, IRAK1.
From the text: as §1, §2, §3

Some results are limits rather than exact numbers.

T3 sequence (P51617 whole entry): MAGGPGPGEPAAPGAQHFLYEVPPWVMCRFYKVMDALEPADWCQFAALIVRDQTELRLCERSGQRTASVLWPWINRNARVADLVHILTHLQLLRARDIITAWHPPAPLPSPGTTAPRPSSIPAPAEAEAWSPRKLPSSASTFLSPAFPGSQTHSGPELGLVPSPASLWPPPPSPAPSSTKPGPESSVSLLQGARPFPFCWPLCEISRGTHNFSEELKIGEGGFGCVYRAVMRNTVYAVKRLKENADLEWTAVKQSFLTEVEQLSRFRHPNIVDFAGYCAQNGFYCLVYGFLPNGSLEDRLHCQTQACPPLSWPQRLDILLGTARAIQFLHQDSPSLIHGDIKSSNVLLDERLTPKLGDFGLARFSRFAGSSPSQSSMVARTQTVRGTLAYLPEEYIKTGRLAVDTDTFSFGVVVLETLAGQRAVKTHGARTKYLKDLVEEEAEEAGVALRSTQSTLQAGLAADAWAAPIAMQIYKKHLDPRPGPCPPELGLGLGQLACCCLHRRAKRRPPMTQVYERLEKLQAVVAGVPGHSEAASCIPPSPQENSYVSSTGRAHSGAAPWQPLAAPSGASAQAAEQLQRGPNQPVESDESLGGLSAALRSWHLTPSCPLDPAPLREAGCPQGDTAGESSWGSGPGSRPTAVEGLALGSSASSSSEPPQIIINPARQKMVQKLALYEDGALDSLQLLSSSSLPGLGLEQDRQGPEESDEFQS

Regarding `FC(F)n1cc(-c2ccc3ncc(-c4cccc(N[C@H]5CNC[C@@H]5F)n4)n3n2)cn1` [Compound 2, 6-(6-(1-(difluoromethyl)-1 H-pyrazol-4-yl)imidazo[1,2-b]pyridazin-3-yl)-N-((3S,4S)-4-fluoropyrrolidin-3-yl)pyridin-2-amine], the figures for the IC50 against FLT3, against IRAK4 and at IRAK1 were 2 nM, 115 nM and 948 nM, respectively.

As to `F[C@H]1CNC[C@@H]1Nc1cccc(-c2cnc3ccc(-c4cnn(C5CC5)c4)nn23)n1` [Compound 3, 6-(6-(1-cyclopropyl-1 H-pyrazol-4-yl)imidazo[1,2-b]pyridazin-3-yl)-N-((3S,4S)-4-fluoropyrrolidin-3-yl)pyridin-2-amine], the IC50 – broadly, the concentration that gives 50% inhibition – was determined as 1 nM against FLT3, 71 nM against IRAK4 and 449 nM at IRAK1.

On to `CC(C)(O)Cn1cc(-c2ccc3ncc(-c4cccc(N[C@H]5CNC[C@@H]5F)n4)n3n2)cn1` [Compound 4, 1-(4-(3-(6-(((3S,4S)-4-fluoropyrrolidin-3-yl)amino)pyridin-2-yl)imidazo[1,2-b]pyridazin-6-yl)-1 H-pyrazol-1-yl)-2-methylpropan-2-ol], for which the IC50 at FLT3 turned out to be 3 nM; at IRAK4 it was 114 nM; against IRAK1, 1360 nM.

Turning to `Cn1cc(-c2ccc3ncc(-c4cccc(N[C@H]5CCNC[C@@H]5F)n4)n3n2)cn1` [Compound 5, N-((3S,4S)-3-fluoropiperidin-4-yl)-6-(6-(1-methyl-1H-pyrazol-4-yl)imidazo[1,2-b]pyridazin-3-yl)pyridin-2-amine], the results for the IC50 at FLT3, at IRAK4 and against IRAK1 were 5 nM, 51 nM and 266 nM, respectively.

Turning to `FC(F)n1cc(-c2ccc3ncc(-c4cccc(N[C@H]5CCNC[C@@H]5F)n4)n3n2)cn1` [Compound 6, 6-(6-(1-(difluoromethyl)-1 H-pyrazol-4-yl)imidazo[1,2-b]pyridazin-3-yl)-N-((3S,4S)-3-fluoropiperidin-4-yl)pyridin-2-amine], the IC50 against FLT3 was determined as 4 nM; against IRAK4, 62 nM; on IRAK1 it was 296 nM.

As to `F[C@H]1CNCC[C@@H]1Nc1cccc(-c2cnc3ccc(-c4cnn(C5CC5)c4)nn23)n1` [Compound 7, 6-(6-(1-cyclopropyl-1 H-pyrazol-4-yl)imidazo[1,2-b]pyridazin-3-yl)-N-((3S,4S)-3-fluoropiperidin-4-yl)pyridin-2-amine], the IC50 worked out at 4 nM against FLT3, 52 nM against IRAK4 and 284 nM against IRAK1.

Take `CC(C)(O)Cn1cc(-c2ccc3ncc(-c4cccc(N[C@H]5CCNC[C@@H]5F)n4)n3n2)cn1` [Compound 8, 1-(4-(3-(6-(((3S,4S)-3-fluoropiperidin-4-yl)amino)pyridin-2-yl)imidazo[1,2-b]pyridazin-6-yl)-1 H-pyrazol-1-yl)-2-methylpropan-2-ol]: the values for the IC50 against FLT3, at IRAK4 and against IRAK1 were 8 nM, 586 nM and 704 nM, respectively.

Turning to `Cn1cc(-c2ccc3ncc(-c4cccc(N[C@H]5CNC[C@@H]5C(F)(F)F)n4)n3n2)cn1` [Compound 11, 6-(6-(1-methyl-1 H-pyrazol-4-yl)imidazo[1,2-b]pyridazin-3-yl)-N-((3R,4S)-4-(trifluoromethyl)pyrrolidin-3-yl)pyridin-2-amine], the figures for the half-inhibitory concentration (IC50) at FLT3, on IRAK4 and against IRAK1 were below 0.5 nM, 21 nM and 860 nM, respectively.

Consider `FC(F)n1cc(-c2ccc3ncc(-c4cccc(N[C@H]5CNC[C@@H]5C(F)(F)F)n4)n3n2)cn1` [Compound 12, 6-(6-(1-(difluoromethyl)-1 H-pyrazol-4-yl)imidazo[1,2-b]pyridazin-3-yl)-N-((3R,4S)-4-(trifluoromethyl)pyrrolidin-3-yl)pyridin-2-amine], for which the IC50 was found to be 3 nM at FLT3, 128 nM against IRAK4 and 2060 nM on IRAK1.

As for `FC(F)(F)[C@H]1CNC[C@@H]1Nc1cccc(-c2cnc3ccc(-c4cnn(C5CC5)c4)nn23)n1` [Compound 13, 6-(6-(1-cyclopropyl-1 H-pyrazol-4-yl)imidazo[1,2-b]pyridazin-3-yl)-N-((3R,4S)-4-(trifluoromethyl)pyrrolidin-3-yl)pyridin-2-amine], the figures for the IC50 on FLT3, against IRAK4 and at IRAK1 were 2 nM, 106 nM and 1840 nM, respectively.

For the compound `CC(C)(O)Cn1cc(-c2ccc3ncc(-c4cccc(N[C@H]5CNC[C@@H]5C(F)(F)F)n4)n3n2)cn1` [Compound 14, 2-methyl-1-(4-(3-(6-(((3R,4S)-4-(trifluoromethyl)pyrrolidin-3-yl)amino)pyridin-2-yl)imidazo[1,2-b]pyridazin-6-yl)-1 H-pyrazol-1-yl)propan-2-ol], the IC50 against FLT3 came to 3 nM; against IRAK4 it was 100 nM; on IRAK1, 1850 nM.

Consider `Cn1cc(-c2ccc3ncc(-c4cccc(N[C@@H]5CCCNC5)n4)n3n2)cn1` [Compound 15, (R)-6-(6-(1-methyl-1H-pyrazol-4-yl)imidazo[1,2-b]pyridazin-3-yl)-N-(piperidin-3-yl)pyridin-2-amine], for which the IC50 was below 0.5 nM at FLT3, 13 nM at IRAK4 and 226 nM against IRAK1.

As to `FC(F)n1cc(-c2ccc3ncc(-c4cccc(N[C@@H]5CCCNC5)n4)n3n2)cn1` [Compound 16], the IC50 at FLT3 was below 0.5 nM; on IRAK4 it was 157 nM; against IRAK1 it was 3060 nM.

Consider `c1cc(N[C@@H]2CCCNC2)nc(-c2cnc3ccc(-c4cnn(C5CC5)c4)nn23)c1` [Compound 17, (R)-6-(6-(1-cyclopropyl-1 H-pyrazol-4-yl)imidazo[1,2-b]pyridazin-3-yl)-N-(piperidin-3-yl)pyridin-2-amine], for which the 50% inhibitory concentration (IC50) is below 0.5 nM at FLT3, 9 nM against IRAK4 and 1820 nM against IRAK1.

Consider `CC(C)(O)Cn1cc(-c2ccc3ncc(-c4cccc(N[C@@H]5CCCNC5)n4)n3n2)cn1` [Compound 18, (R)-2-methyl-1-(4-(3-(6-(piperidin-3-ylamino)pyridin-2-yl)imidazo[1,2-b]pyridazin-6-yl)-1 H-pyrazol-1-yl)propan-2-ol], for which the figures for the IC50 against FLT3, against IRAK4 and on IRAK1 were 4 nM, 1410 nM and 2440 nM, respectively.

For `Cn1cc(-c2ccc3ncc(-c4cccc(NC5CNCC5(F)F)n4)n3n2)cn1` (stereo not drawn) [Compound 21, N-(4,4-difluoropyrrolidin-3-yl)-6-(6-(1-methyl-1H-pyrazol-4-yl)imidazo[1,2-b]pyridazin-3-yl)pyridin-2-amine], the IC50 stood at 6 nM at FLT3, 38 nM at IRAK4 and 497 nM against IRAK1.

Consider `FC1(F)CNCC1Nc1cccc(-c2cnc3ccc(-c4cnn(C5CC5)c4)nn23)n1` (stereo not drawn) [Compound 22, 6-(6-(1-cyclopropyl-1H-pyrazol-4-yl)imidazo[1,2-b]pyridazin-3-yl)-N-(4,4-difluoropyrrolidin-3-yl)pyridin-2-amine], for which the IC50 amounted to 6 nM at FLT3, 44 nM at IRAK4 and 678 nM on IRAK1.

As for `FC(F)n1cc(-c2ccc3ncc(-c4cccc(NC5CNCC5(F)F)n4)n3n2)cn1` (stereo not drawn) [Compound 23, 6-(6-(1-(difluoromethyl)-1H-pyrazol-4-yl)imidazo[1,2-b]pyridazin-3-yl)-N-(4,4-difluoropyrrolidin-3-yl)pyridin-2-amine], the IC50 was 16 nM against FLT3, 75 nM against IRAK4 and 1150 nM against IRAK1.

As for `CC(C)(O)Cn1cc(-c2ccc3ncc(-c4cccc(NC5CNCC5(F)F)n4)n3n2)cn1` (stereo not drawn) [Compound 24, 1-(4-(3-(6-((4,4-difluoropyrrolidin-3-yl)amino)pyridin-2-yl)imidazo[1,2-b]pyridazin-6-yl)-1H-pyrazol-1-yl)-2-methylpropan-2-ol], the figures for the IC50 on FLT3, against IRAK4 and against IRAK1 were 17 nM, 261 nM and 1640 nM, respectively.
